Assay results as given in patent US20230398130A1, “METHODS AND COMPOSITIONS FOR DIFFERENTIATING STEM CELLS” (Massachusetts Institute of Technology, priority 2020, published 2023).

Experiments:
ISC-enriched organoids [1] = experiment: Primary screen, 384-well 2.5-D organoid differentiation (ENR+CD, 6 days): basal lysozyme secretion (LYZ.NS); format: cell-based, murine; settings: primary screen; for Dose.FC.LYZ.NS (log 2 fold change): vs plate median
Text: (§1) High-throughput screening.

ISC-enriched organoids [2] = experiment: Primary screen, 384-well 2.5-D organoid differentiation (ENR+CD, 6 days): carbachol-induced lysozyme secretion (LYZ.S); format: cell-based, murine; settings: primary screen, vs plate median
Text: as §1

ISC-enriched organoids [3] = experiment: Primary screen, 384-well 2.5-D organoid differentiation (ENR+CD, 6 days, Target Selective Inhibitor Library, vs whole-plate median): ATP (CellTiter-Glo 3D, CTG); settings: primary screen; for Dose.FC.CTG (log 2 fold change): vs plate median

Structure (SMILES): C[S+]([O-])c1ccc(-c2nc(-c3ccc(F)cc3)c(-c3ccncc3)[nH]2)cc1 (stereo not drawn) [SB203580]
- Z.LYZ.NS (standard z score) (ISC-enriched organoids [1]; Dose 0.08 uM): 0.805
- Dose.FC.LYZ.NS (log 2 fold change) (ISC-enriched organoids [1]; Dose 0.08 uM): 0.092
- Z.LYZ.NS (standard z score) (ISC-enriched organoids [1]; Dose 0.40 uM): 1.109
- Dose.FC.LYZ.NS (log 2 fold change) (ISC-enriched organoids [1]; Dose 0.40 uM): 0.127
- Z.LYZ.NS (standard z score) (ISC-enriched organoids [1]; Dose 2.00 uM): 0.453
- Dose.FC.LYZ.NS (log 2 fold change) (ISC-enriched organoids [1]; Dose 2.00 uM): 0.052
- Z.LYZ.NS (standard z score) (ISC-enriched organoids [1]; Dose 10.00 uM): 0.199
- Dose.FC.LYZ.NS (log 2 fold change) (ISC-enriched organoids [1]; Dose 10.00 uM): 0.023
- Dose.FC.LYZ.S (log 2 fold change) (ISC-enriched organoids [2]; Dose 0.08 uM): 0.148
- Dose.FC.LYZ.S (log 2 fold change) (ISC-enriched organoids [2]; Dose 0.40 uM): 0.098
- Dose.FC.LYZ.S (log 2 fold change) (ISC-enriched organoids [2]; Dose 2.00 uM): 0.077
- Dose.FC.LYZ.S (log 2 fold change) (ISC-enriched organoids [2]; Dose 10.00 uM): 0.069
- Z.CTG (standard z score) (ISC-enriched organoids [3]; Dose 0.08 uM): 0.479
- Dose.FC.CTG (log 2 fold change) (ISC-enriched organoids [3]; Dose 0.08 uM): 0.201
- Z.CTG (standard z score) (ISC-enriched organoids [3]; Dose 0.40 uM): 0.356
- Dose.FC.CTG (log 2 fold change) (ISC-enriched organoids [3]; Dose 0.40 uM): 0.149
- Z.CTG (standard z score) (ISC-enriched organoids [3]; Dose 2.00 uM): 0.567
- Dose.FC.CTG (log 2 fold change) (ISC-enriched organoids [3]; Dose 2.00 uM): 0.237
- Z.CTG (standard z score) (ISC-enriched organoids [3]; Dose 10.00 uM): 0.435
- Dose.FC.CTG (log 2 fold change) (ISC-enriched organoids [3]; Dose 10.00 uM): 0.182

Structure (SMILES): CNC(=O)c1ccc2cc([C@@]3(O)CCn4cncc43)ccc2c1 [TAK-700 (Orteronel)]
- Z.LYZ.NS (standard z score) (ISC-enriched organoids [1]; Dose 0.08 uM): 1.535
- Dose.FC.LYZ.NS (log 2 fold change) (ISC-enriched organoids [1]; Dose 0.08 uM): 0.176
- Z.LYZ.NS (standard z score) (ISC-enriched organoids [1]; Dose 0.40 uM): 1.585
- Dose.FC.LYZ.NS (log 2 fold change) (ISC-enriched organoids [1]; Dose 0.40 uM): 0.182
- Z.LYZ.NS (standard z score) (ISC-enriched organoids [1]; Dose 2.00 uM): 1.058
- Dose.FC.LYZ.NS (log 2 fold change) (ISC-enriched organoids [1]; Dose 2.00 uM): 0.121
- Z.LYZ.NS (standard z score) (ISC-enriched organoids [1]; Dose 10.00 uM): −0.018
- Dose.FC.LYZ.NS (log 2 fold change) (ISC-enriched organoids [1]; Dose 10.00 uM): −0.002
- Dose.FC.LYZ.S (log 2 fold change) (ISC-enriched organoids [2]; Dose 0.08 uM): 0.113
- Dose.FC.LYZ.S (log 2 fold change) (ISC-enriched organoids [2]; Dose 0.40 uM): 0.090
- Dose.FC.LYZ.S (log 2 fold change) (ISC-enriched organoids [2]; Dose 2.00 uM): 0.093
- Dose.FC.LYZ.S (log 2 fold change) (ISC-enriched organoids [2]; Dose 10.00 uM): 0.032
- Z.CTG (standard z score) (ISC-enriched organoids [3]; Dose 0.08 uM): −0.659
- Dose.FC.CTG (log 2 fold change) (ISC-enriched organoids [3]; Dose 0.08 uM): −0.276
- Z.CTG (standard z score) (ISC-enriched organoids [3]; Dose 0.40 uM): −0.056
- Dose.FC.CTG (log 2 fold change) (ISC-enriched organoids [3]; Dose 0.40 uM): −0.024
- Z.CTG (standard z score) (ISC-enriched organoids [3]; Dose 2.00 uM): −0.202
- Dose.FC.CTG (log 2 fold change) (ISC-enriched organoids [3]; Dose 2.00 uM): −0.084
- Z.CTG (standard z score) (ISC-enriched organoids [3]; Dose 10.00 uM): 0.219
- Dose.FC.CTG (log 2 fold change) (ISC-enriched organoids [3]; Dose 10.00 uM): 0.092

Structure (SMILES): CC(C)(C)c1cnc(CSc2cnc(NC(=O)C3CCNCC3)s2)o1 [SNS-032 (BMS-387032)]
- Z.LYZ.NS (standard z score) (ISC-enriched organoids [1]; Dose 0.08 uM): 0.428
- Dose.FC.LYZ.NS (log 2 fold change) (ISC-enriched organoids [1]; Dose 0.08 uM): 0.049
- Z.LYZ.NS (standard z score) (ISC-enriched organoids [1]; Dose 0.40 uM): −1.241
- Dose.FC.LYZ.NS (log 2 fold change) (ISC-enriched organoids [1]; Dose 0.40 uM): −0.143
- Z.LYZ.NS (standard z score) (ISC-enriched organoids [1]; Dose 2.00 uM): −2.399
- Dose.FC.LYZ.NS (log 2 fold change) (ISC-enriched organoids [1]; Dose 2.00 uM): −0.276
- Z.LYZ.NS (standard z score) (ISC-enriched organoids [1]; Dose 10.00 uM): −2.214
- Dose.FC.LYZ.NS (log 2 fold change) (ISC-enriched organoids [1]; Dose 10.00 uM): −0.254
- Dose.FC.LYZ.S (log 2 fold change) (ISC-enriched organoids [2]; Dose 0.08 uM): 0.070
- Dose.FC.LYZ.S (log 2 fold change) (ISC-enriched organoids [2]; Dose 0.40 uM): −0.206
- Dose.FC.LYZ.S (log 2 fold change) (ISC-enriched organoids [2]; Dose 2.00 uM): −0.301
- Dose.FC.LYZ.S (log 2 fold change) (ISC-enriched organoids [2]; Dose 10.00 uM): −0.361
- Z.CTG (standard z score) (ISC-enriched organoids [3]; Dose 0.08 uM): −0.180
- Dose.FC.CTG (log 2 fold change) (ISC-enriched organoids [3]; Dose 0.08 uM): −0.075
- Z.CTG (standard z score) (ISC-enriched organoids [3]; Dose 0.40 uM): −0.198
- Dose.FC.CTG (log 2 fold change) (ISC-enriched organoids [3]; Dose 0.40 uM): −0.083
- Z.CTG (standard z score) (ISC-enriched organoids [3]; Dose 2.00 uM): −2.186
- Dose.FC.CTG (log 2 fold change) (ISC-enriched organoids [3]; Dose 2.00 uM): −0.915
- Z.CTG (standard z score) (ISC-enriched organoids [3]; Dose 10.00 uM): −2.411
- Dose.FC.CTG (log 2 fold change) (ISC-enriched organoids [3]; Dose 10.00 uM): −1.009
